Measurements from ChEMBL document CHEMBL4033724, “Novel sulfonamide-containing 2-indolinones that selectively inhibit tumor-associated alpha carbonic anhydrases” (Bioorg Med Chem, 2017).

Assays:
Carbonic anhydrase 2 = Carbonic anhydrase 2 (Homo sapiens, UniProt P00918); assay: Inhibition of recombinant human cytosolic carbonic anhydrase 2 expressed in Escherichia coli pretreated for 15 mins prior to testing by stopped-flow assay
Carbonic anhydrase 9 = Carbonic anhydrase 9 (Homo sapiens, UniProt Q16790); assay: Inhibition of recombinant human membrane bound carbonic anhydrase 9 expressed in Escherichia coli pretreated for 15 mins prior to testing by stopped-flow assay
Carbonic anhydrase 12 = Carbonic anhydrase 12 (Homo sapiens, UniProt O43570); assay: Inhibition of recombinant human […] expressed in Escherichia coli pretreated for 15 mins prior to testing by stopped-flow assay
Chain of Carbonic anhydrase 12 (O43570 whole entry): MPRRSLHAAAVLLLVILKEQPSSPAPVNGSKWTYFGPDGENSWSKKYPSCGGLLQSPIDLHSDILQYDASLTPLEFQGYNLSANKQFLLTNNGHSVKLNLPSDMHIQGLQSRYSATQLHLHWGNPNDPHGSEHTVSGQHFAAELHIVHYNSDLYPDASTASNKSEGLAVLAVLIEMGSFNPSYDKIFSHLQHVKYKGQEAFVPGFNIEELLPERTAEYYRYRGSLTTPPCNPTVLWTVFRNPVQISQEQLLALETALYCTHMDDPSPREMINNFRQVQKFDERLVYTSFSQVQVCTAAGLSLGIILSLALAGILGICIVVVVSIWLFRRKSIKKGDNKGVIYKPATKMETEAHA

Carbonic anhydrase 1 = Carbonic anhydrase 1 (Homo sapiens, UniProt P00915); assay: Inhibition of recombinant human cytosolic carbonic anhydrase 1 expressed in Escherichia coli pretreated for 15 mins prior to testing by stopped-flow assay
Chain of Carbonic anhydrase 1 (P00915 whole entry): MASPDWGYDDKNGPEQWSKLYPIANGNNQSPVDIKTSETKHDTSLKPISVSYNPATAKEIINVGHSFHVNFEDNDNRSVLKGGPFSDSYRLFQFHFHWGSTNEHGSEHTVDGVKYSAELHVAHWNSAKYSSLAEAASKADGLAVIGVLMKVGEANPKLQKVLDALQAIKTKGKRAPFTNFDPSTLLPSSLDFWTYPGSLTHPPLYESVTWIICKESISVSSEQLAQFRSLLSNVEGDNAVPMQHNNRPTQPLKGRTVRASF

Row | SMILES | Ki (Carbonic anhydrase 2) | Ki (Carbonic anhydrase 9) | Ki (Carbonic anhydrase 12) | Ki (Carbonic anhydrase 1)
1 | NS(=O)(=O)c1ccc(NC(=S)N/N=C2\C(=O)Nc3c(Br)cc(Br)cc32)cc1 | 687 nM | 58.1 nM | 6.3 nM | 698 nM
2 | NS(=O)(=O)c1ccc(NC(=S)N/N=C2\C(=O)Nc3ccc(S(=O)(=O)O)cc32)cc1 | 897 nM | 34.4 nM | 1.2 nM | 901 nM
3 | NS(=O)(=O)c1ccc(NC(=S)N/N=C2\C(=O)Nc3c(Cl)cc(Cl)cc32)cc1 | 782 nM | 21.3 nM | 82.3 nM | 554 nM
4 | NS(=O)(=O)c1ccc(NC(=S)N/N=C2\C(=O)Nc3ccc(F)cc32)cc1 | 551 nM | 38.8 nM | 4.5 nM | 558 nM
5 | NS(=O)(=O)c1ccc(NC(=S)N/N=C2\C(=O)Nc3ccc(Br)cc32)cc1 | 851 nM | 64.8 nM | 6.1 nM | 882 nM
6 | NS(=O)(=O)c1ccc(NC(=S)N/N=C2\C(=O)Nc3ccc(Cl)cc32)cc1 | 616 nM | 54.2 nM | 5.8 nM | 650 nM
7 | NS(=O)(=O)c1ccc(NC(=S)N/N=C2\C(=O)Nc3ccccc32)cc1 | 936 nM | 66.3 nM | 6.9 nM | 1190 nM
8 | Cc1ccc2c(c1)/C(=N/NC(=S)Nc1ccc(S(N)(=O)=O)cc1)C(=O)N2 | 735 nM | 62.3 nM | 5.7 nM | 744 nM

The next molecules have a lower Ki (Carbonic anhydrase 2) than those just listed; values first:

Row | Ki (Carbonic anhydrase 2) | Ki (Carbonic anhydrase 9) | Ki (Carbonic anhydrase 12) | Ki (Carbonic anhydrase 1) | SMILES
9 | 399 nM | 16.8 nM | 5.9 nM | 624 nM | NS(=O)(=O)c1ccc(NC(=S)N/N=C2\C(=O)Nc3ccc(I)cc32)cc1
10 | 26.9 nM | 20.8 nM | 45.5 nM | 57.6 nM | NS(=O)(=O)c1ccc(NC(=S)N/N=C2\C(=O)Nc3c(F)cccc32)cc1
11 | 420 nM | 45.7 nM | 6 nM | 481 nM | NS(=O)(=O)c1ccc(NC(=S)N/N=C2\C(=O)Nc3ccc(OC(F)(F)F)cc32)cc1
12 | 426 nM | 13.3 nM | 87.3 nM | 76.1 nM | NS(=O)(=O)c1ccc(NC(=S)N/N=C2\C(=O)Nc3c(Cl)cccc32)cc1
13 | 32 nM | 19.5 nM | 4.1 nM | 68.8 nM | NS(=O)(=O)c1ccc(NC(=S)N/N=C2\C(=O)Nc3ccc([N+](=O)[O-])cc32)cc1
